Results reported in US7323167B2, “Method of treatment with modified arginine deiminase” (Polaris Group, priority 1997, dated 2008).

Experiments:
[1] = biological target: T1, Mycoplasma hominus arginine deiminase (HOMADIPRO, ATCC 23114), recombinant, expressed in E. coli, SEQ ID NO: 3 (Metamycoplasma hominis, UniProt P41141); experiment: Kinetic characterization (Km, Vmax, affinity) of recombinant ADI with arginine, quantifying citrulline production; type: biochemical; conditions: about; range given for the enzymes of the three Mycoplasma species; various concentrations of arginine
T1 construct: tag not given
T1 sequence (P41141 whole entry): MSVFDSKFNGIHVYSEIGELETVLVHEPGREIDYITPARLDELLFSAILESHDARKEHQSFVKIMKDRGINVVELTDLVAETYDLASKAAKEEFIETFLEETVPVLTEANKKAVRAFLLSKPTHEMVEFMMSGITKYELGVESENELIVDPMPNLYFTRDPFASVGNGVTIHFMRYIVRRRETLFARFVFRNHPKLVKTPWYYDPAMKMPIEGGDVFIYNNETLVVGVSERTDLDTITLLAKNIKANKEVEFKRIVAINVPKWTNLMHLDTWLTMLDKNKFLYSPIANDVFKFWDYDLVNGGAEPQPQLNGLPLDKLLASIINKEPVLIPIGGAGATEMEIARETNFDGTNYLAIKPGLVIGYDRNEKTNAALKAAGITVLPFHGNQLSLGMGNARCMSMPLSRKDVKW
Description: (§1) Cultures of Mycoplasma arginini (ATCC 23243), Mycoplasma hominus (ATCC 23114) and Mycoplasma arthritides (ATCC 23192) were obtained from the American Type Culture Collection, Rockville, Md.
(§2) Arginine deiminase was cloned from Mycoplasma arginini, Mycoplasma hominus and Mycoplasma arthritides and expressed in E. coli as previously described by S. Misawa et al, J. Biotechnology, 36:145-155 (1994), the disclosure of which is hereby incorporated herein by reference in its entirety. The top amino acid sequence, identified as ADIPROT, is from Mycoplasma arginini; the middle amino acid sequence, identified as ARTADIPRO, is from Mycoplasma arthritides; and the bottom amino acid sequence, identified as HOMADIPRO, is from Mycoplasma hominus. Each of the amino acid sequences are more than 96% conserved. […] The pH optima was determined using a citrate buffer (pH 5-6.5), a phosphate buffer (pH 6.5-7.5) and a borate buffer (pH 7.5-8.5). The Km and Vmax were determined by incubating the enzyme with various concentrations of arginine and quantifying citrulline production. The Km for the various enzymes was about 0.02 to 0.06 μM and the Vmax was about 15-20 μmol/min/mg, the values of which are within standard error of each other.
(§3) The proteins from each of the above three species of Mycoplasma have approximately 95% homology and are readily purified by column chromatography. […]

[2] = biological target: T2, Mycoplasma arginini arginine deiminase (ADIPROT, ATCC 23243), recombinant, expressed in E. coli, SEQ ID NO: 1 (Mycoplasmopsis arginini, UniProt P23793); experiment: as above; type: biochemical; conditions: about; range given for the enzymes of the three Mycoplasma species; various concentrations of arginine
T2 construct: made in house; host or cells: E. coli
T2 sequence (P23793 whole entry E126K): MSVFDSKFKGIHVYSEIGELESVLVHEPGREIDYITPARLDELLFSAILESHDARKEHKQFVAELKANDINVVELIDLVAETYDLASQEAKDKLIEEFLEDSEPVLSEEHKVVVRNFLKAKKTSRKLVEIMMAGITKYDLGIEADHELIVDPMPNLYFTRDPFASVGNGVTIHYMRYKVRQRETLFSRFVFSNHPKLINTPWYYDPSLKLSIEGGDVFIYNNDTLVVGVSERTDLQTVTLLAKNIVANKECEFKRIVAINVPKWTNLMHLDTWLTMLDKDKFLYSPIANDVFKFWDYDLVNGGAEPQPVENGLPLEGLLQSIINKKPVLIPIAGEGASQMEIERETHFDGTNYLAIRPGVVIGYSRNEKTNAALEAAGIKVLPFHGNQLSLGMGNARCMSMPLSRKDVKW
Description: as §1, §2, §3

SMILES: N=C(N)NCCC[C@H](N)C(=O)O [arginine, L-arginine]
- Vmax [1]: 15 to 20 µmol/min/mg
- Vmax [2]: 15 to 20 µmol/min/mg
